Data set [1] addresses Pim-3 (Homo sapiens, UniProt Q86V86). In words: In vitro assay of Pim-3 kinase activity (His-Bad phosphorylation, ELISA with anti-pBad Ser112 antibody). Type of data set: biochemical. The settings on record: 0, 20, 40, 80, 160 μmol/l compound; 10 μmol/l ATP; 30° C. 1 hour; FIG. 1. As to the method:
A His-Bad protein solution (3 μg/ml) diluted with a carbonate buffer (pH 9.6) (15 mmol/l Na2CO3(Wako), […] NaHCO3 (Wako), 0.02% (w/v) NaN3 (Wako), pH 9.6) was added at 100 μl/well to a 96-well microplate (Nunc-Immuno™ Plate, NUNC Brand Products, Nalge Nunc International, Denmark), and the plate was coated at 4° C. overnight. The plate was washed 3 times on the following day, a 1% BSA/PBS(−) solution was added at 150 μl/well, the plate was blocked at 37° C. for 1 hour, and the plate was then washed 3 times. A kinase buffer containing 19.2 nmol/l thioredoxin-hexahistidine-Pim-3 fusion protein, 10 μmol/l ATP (Cell Signaling), and Compounds 5, 7, and 12 synthesized in the examples above (0, 20, 40, 80, and 160 μmol/l) (25 mmol/l Tris-HCl (pH 7.5), 10 mmol/l MgCl2, 0.1 mmol/l Na3VO4, 2 mmol/l dithiothreitol (DTT), 5 mmol/l s-glycerophosphate, Cell Signaling) was added at 40 μl/well to the treated plate. After the reaction was carried out at 30° C. for 1 hour, the plate was washed 5 times, the 1.000-fold diluted anti-pBadser112 rabbit antibody (Cell Signaling) was added at 100 μl/well, and the reaction was carried out at 37° C. for 1 hour. […] The plate was subjected to the absorbance assay at 405 nm using a microplate reader (Model 550, Bio-Rad). […]
A general note: In an ELISA, binding on a coated surface is turned into a signal by an enzyme label.

The subject of data set [2] is PANC-1 cell line. In words: Cell growth assay (pancreatic cancer cell), WST-1. Type of data set: cell-based, human. Conditions: Compound 7 4-10 μmol/l, Compound 12 5-30 μmol/l, 0-96 hours, FIG. 4. How it is done:
(§1) Human pancreatic cancer cell lines (PCI35, PCI55, PCI66, MiaPaCa-2, L3.6 […], and PANC-1) were dispensed into a 96-well cell culture Microtest Plate (Becton Dickinson) at 3,000 cells/well with 100 μl of culture media. The media were removed 16 to 18 hours after the initiation of culture, and media containing the test compounds (i.e., 0.1% DMSO, Compound 7 (4, 6, 8, 10 μmol/l), Compound 12 (5, 10, 20, 30 μmol/l)) were added at 100 μl/well. After culture was continued for 0, 24, 48, 72, and 96 hours, the medium containing the test compound was removed, and a 10% WST-1 medium (Roche) was added at 100 μl/well. After culture was conducted for an additional 1 hour, the absorbance at 450 nm was assayed using a microplate reader (Model 550, Bio-Rad). RPMI-1640 medium (SIGMA) was used for the PCI35, PCI55, PCI66, MiaPaCa-2, and PANC-1 cell lines, MEM medium (Invitrogen) was used for the L3.6 pl cell lines, and 10% calf serum (Invitrogen), 50 U/ml penicillin G (SIGMA), and 50 μg/ml streptomycin (SIGMA) were added to every medium. The cell lines were cultured in a 37° C. 5% CO2 carbon dioxide incubator (ESPEC).
A general note: Tetrazolium assays rely on reduction of a dye to a coloured formazan, in cell work by metabolically active cells.

In data set [3] the test system is PCI35 cell line. Kind of data set: Cell growth assay (pancreatic cancer cell), WST-1. Conditions: Compound 7 4-10 μmol/l, Compound 12 5-30 μmol/l, 0-96 hours, FIG. 2. Type of data set: cell-based, human. How it is done: as §1
Data set [4] has as its system L3.6 pl cell line. In words: Cell growth assay (pancreatic cancer cell), WST-1. Type of data set: cell-based, human. The settings on record: Compound 7 4-10 μmol/l, Compound 12 5-30 μmol/l, 0-96 hours, FIG. 5. How it is done:
as §1

For data set [5], the system named is MiaPaCa-2 cell line. In words: Cell growth assay (pancreatic cancer cell), WST-1. Type of data set: cell-based, human. The settings on record: Compound 7 4-10 μmol/l, Compound 12 5-30 μmol/l, 0-96 hours, FIG. 6. How it is done:
as §1

The subject of data set [6] is PCI66 cell line. Kind of data set: Cell growth assay (pancreatic cancer cell), WST-1. Type of data set: cell-based, human. Conditions: Compound 7 4-10 μmol/l, Compound 12 5-30 μmol/l, 0-96 hours, FIG. 7. As to the method: as §1
Data set [7] deals with PCI55 cell line. In words: Cell growth assay (pancreatic cancer cell), WST-1. The settings on record: Compound 7 4-10 μmol/l, Compound 12 5-30 μmol/l, 0-96 hours, FIG. 3. Type of data set: cell-based, human. How it is done: as §1
The subject of data set [8] is SW48. Kind of data set: Cell growth assay (colon cancer cell), WST-1. Type of data set: cell-based, human. The settings on record: 4, 6, 8, 10 μmol/l, 0-96 hours, FIG. 9. How it is done:
(§2) Human colon cancer cell lines (SW48, SW480, and HT29 at 3,000 cells/well) were dispensed into a 96-well cell culture Microtest Plate (Becton Dickinson) with 100 μl of culture media. The media were removed 16 to 18 hours after the initiation of culture, and the media containing the test compounds (0.1% DMSO, Compound 7 (4, 6, 8, and 10 μmol/l)) were added at 100 μl/well. After culture was continued for 0, 24, 48, 72, and 96 hours, the medium containing the test compound was removed, and a 10% WST-1 medium (Roche) was added at 100 μl/well. After culture was conducted for an additional 1 hour, the absorbance at 450 nm was assayed using a microplate reader (Model 550, Bio-Rad). RPMI-1640 medium (SIGMA) was used, and 10% calf serum (Invitrogen), 50 U/ml penicillin G (SIGMA), and 50 μg/ml streptomycin (SIGMA) were added to the medium. The cell lines were cultured in a 37° C. 5% CO2 carbon dioxide incubator (ESPEC).

Data set [9] has as its system SW480. In words: Cell growth assay (colon cancer cell), WST-1. Type of data set: cell-based, human. Conditions: 4, 6, 8, 10 μmol/l, 0-96 hours, FIG. 9. As to the method:
as §2

The subject of data set [10] is HT29. Kind of data set: Cell growth assay (colon cancer cell), WST-1. The settings on record: 4, 6, 8, 10 μmol/l, 0-96 hours, FIG. 9. Type of data set: cell-based, human. How it is done: as §2
The test system of data set [11] is HuH7. Kind of data set: Cell growth assay (liver cancer cell), WST-1. Type of data set: cell-based, human. Conditions: 4, 6, 8, 10 μmol/l, 0-96 hours, FIG. 8. How it is done: as §2, with “liver” for “colon”, “(Hep3B, HuH7,” for “(SW48, SW480,”, “HepG2” for “HT29”, “4000, 3000, and 4000” for “3,000”, “and” for “and the”
The subject of data set [12] is Hep3B. In words: Cell growth assay (liver cancer cell), WST-1. The settings on record: 4, 6, 8, 10 μmol/l, 0-96 hours, FIG. 8. Type of data set: cell-based, human. As to the method: as §2, with “liver” for “colon”, “(Hep3B, HuH7,” for “(SW48, SW480,”, “HepG2” for “HT29”, “4000, 3000, and 4000” for “3,000”, “and” for “and the”
The test system of data set [13] is HepG2. Kind of data set: Cell growth assay (liver cancer cell), WST-1. Type of data set: cell-based, human. The settings on record: 4, 6, 8, 10 μmol/l, 0-96 hours, FIG. 8. As to the method: as §2, with “liver” for “colon”, “(Hep3B, HuH7,” for “(SW48, SW480,”, “HepG2” for “HT29”, “4000, 3000, and 4000” for “3,000”, “and” for “and the”

For the molecule `O=C1CC[C@@]23C(=O)CC[C@@H]2CCCCN13` [Compound 5], the “inhibition of Pim-3 activity” value in data set [1] is given as “inhibit the Pim-3 activity in a concentration-dependent manner”.
The term melting point denotes the temperature, or range, at which the solid turns liquid. `CCOC(=O)C#C[C@@]1(O)/C(=C/c2ccccc2)C[C@@H]2CCCCN3C(=O)CC[C@]231` [Compound 7] showed a melting point of 209 to 211 °C. The “inhibition of cell growth” value in [2] is reported as “inhibit the growth”. Further, the “inhibition of cell growth” value in data set [3] is reported as “inhibit the growth”. In data set [4], the “inhibition of cell growth” value was “inhibit the growth”. In addition, the “inhibition of cell growth” value in data set [5] is “inhibit the growth”. For the same molecule, the “inhibition of cell growth” value in data set [6] was “inhibit the growth”. The “inhibition of cell growth” value in data set [7] is listed as “inhibit the growth”. Also, the “inhibition of Pim-3 activity” value in data set [1] is listed as “inhibit the Pim-3 activity in a concentration-dependent manner”. The “inhibition of cell growth” value in data set [8] was “inhibit the growth”. Besides, the “inhibition of cell growth” value in [9] is recorded as “inhibit the growth”. Besides, the “inhibition of cell growth” value in data set [10] is “inhibit the growth”. In addition, the “inhibition of cell growth” value in data set [11] was “inhibit the growth”. Further, the “inhibition of cell growth” value in [12] was “inhibit the growth”. For the same molecule, the “inhibition of cell growth” value in data set [13] was “inhibit the growth”.

(Values after US20110124630A1, “STEMONAMIDE SYNTHESIS INTERMEDIATE AND PHARMACEUTICAL COMPOSITION FOR PREVENTION AND/OR TREATMENT OF CANCER” (priority 2008, published 2011).)
